# Test results: patent US8039505B2, “Compounds for modulating T-cells” (University of Utah Research Foundation, priority 2007, dated 2011)
# “Also recorded” adds a separate entry of the source.
# Experiments:
# [1] = test system: human B-ALL line RS 4; 11; test: MTT cell viability, RS4;11; type: cell-based; conditions: RS4;11, 2.5 μM, 48 hours
# Experimental: FIG. 3 is a graph showing viability of human T-ALL lines incubated with individual compounds. Specifically, two human ALL lines (B-ALL: RS4; 11 and T-ALL: Jurkat) were incubated on day 0 with serum or with 2.5 μM of the indicated compounds (except for aphidicolin 1 μM and cyclosporine 1.5 μM). 48 hours later, cells were tested for viability by MTT test. Results from the mean of 3 to 4 experiments carried out in triplicate (individual dots) and the mean of all experiments (horizontal bar) are indicated. Results are shown for compounds without a cell cycle effect (B). Viability of untreated cells was arbitrarily set at 1.0.
# Cell culture experiments: Cells were incubated at 37° C. in 75 mL flasks in RPMI containing 10% FBS, 5 mL Penicillin/Streptomycin (100×) in a total volume of […]. Cells were counted using a hemocytometer, and 25,000 cells were plated in each well of a 96-well plate. Compounds and controls were added and cells were harvested after a 48 hr incubation period.
# To assess effects of compounds, cell viability was measured. […] After crystal solubilization with DMSO a blue color (that is proportional to the amount of crystal formed) can be measured. […] Final optical density (OD) obtained from formazan formation was calculated OD=L1-L2 (background). […]
# [2] = test system: cell cycle in zebrafish embryos; test: Cell cycle profiles in zebrafish embryos (propidium iodide, flow cytometry); type: in vivo; conditions: zebrafish embryos incubated from 4 hours post fertilization overnight, DNA content by flow cytometry
# Experimental: FIG. 2 is a group of cell cycle profiles of active compounds tested in 24 hour zebrafish embryos. Specifically, embryos incubated with E3 fishwater (panel A), hydroxyurea (panel B), compound C4 (panel C), and compound C3 (panel D) are shown. After overnight incubation, single cell solution of embryos was prepared and incubated with propidium iodide. Samples were then subjected to flow cytometry to determine DNA content (X axis). Small arrowheads below the X-axis are placed beneath the diploid (G1) n=2 peak, and the tetraploid (G2/M) n=4 peaks. Cells between these two peaks are in S phase. Cells to the left of the G1 peak (sub G1 peak) have lost chromosomes (n<2), and are presumably dying (indicated as % debris in the right hand legend of each panel). Relative numbers of cells (Y-axis) in the different phases of the cell cycle are given on the right side of each panel.
# All of these compounds were tested for effects on the cell cycle in zebrafish embryos. Zebrafish embryos were incubated at 4 hours post fertilization with compounds or controls. After overnight incubation in compounds, single cell solution of embryos was prepared and incubated with propidium iodide. Samples were then subjected to flow cytometry to determine DNA content. […] Examples are depicted in FIG. 2.
# In FIG. 2, embryos incubated with (A) E3 fishwater, (B) hydroxyurea, (C) compound C4, and (D) C3 are shown. Diploid (G1, n=2) and tetraploid (G2/M, n=4) peaks are identified on the X-axis. Small arrowheads below the X-axis are placed beneath the dipoid (G1) n=2 peak, and the tetraploid (G2/M) n=4 peaks. Cells between these two peaks are in S phase. Cells to the left of the G1 peak (sub G1 peak) have lost chromosomes (n<2) and are presumably dying (indicated as % debris in the right hand legend of each panel). Relative numbers of cells (Y axis) in the different phases of the cell cycle are given on the right side of each panel.
smiles,measurement,setting,value
"C(=NNc1cccc2cccnc12)c1c[nH]c2ccccc12 [Compound C3, 1H-indole-3-carbaldehyde quinolin-8-ylhydrazone]","Effect on B-ALL line (viability, MTT)",[1],"neither the kidney cell line, nor the B-ALL were affected"
same,Effect on the cell cycle,[2],lack of cell cycle effects
same,Effect on the cell cycle,[2]; listed as 3,did not have any appreciable effect on the cell cycle; also recorded: does not affect the cell cycle
